In patent US10479784B2, “Substituted pyrazin-2-amines as inhibitors of ATR kinase” (Vertex Pharmaceuticals Incorporated, priority 2008, dated 2019) one finds Ki data, which are given here for 37 compounds.

The assay concerns the target full-length ATR (Homo sapiens (Human), UniProt Q13535). In words: ATR Inhibition Assay (radioactive-phosphate incorporation). In kind it is biochemical. The following applies: read-out: ATR Ki. Here is the method:
Compounds were screened for their ability to inhibit ATR kinase using a radioactive-phosphate incorporation assay. Assays were carried out in a mixture of 50 mM Tris/HCl (pH 7.5), 10 mM MgCl2 and 1 mM DTT. Final substrate concentrations were […] [γ-33P]ATP (3mCi 33P ATP/mmol ATP, Perkin Elmer) and 800 μM target peptide ([…]).
Assays were carried out at 25° C. in the presence of 5 nM full-length ATR. An assay stock buffer solution was prepared containing all of the reagents listed above, with the exception of ATP and the test compound of interest. […] The plate was pre-incubated for 10 minutes at 25° C. and the reaction initiated by addition of 15 μL [γ-33P]ATP (final concentration 10 μM).
The reaction was stopped after […] by the addition of 30 μL 0.1M phosphoric acid containing 2 mM ATP. A multiscreen phosphocellulose filter 96-well plate (Millipore, Cat no. MAPHN0B50) was pretreated with 100 μL 0.2M phosphoric acid prior to the addition of 45 μL of the stopped assay mixture. […] After drying, 100 μL Optiphase ‘SuperMix’ liquid scintillation cocktail (Perkin Elmer) was added to the well prior to scintillation counting (1450 Microbeta Liquid Scintillation Counter, Wallac).
After removing mean background values for all of the data points, Ki(app) data were calculated from non-linear regression analysis of the initial rate data using the Prism software package (GraphPad Prism version 3.0cx for Macintosh, GraphPad Software, San Diego Calif., USA).

full-length ATR, sequence (Q13535 whole entry): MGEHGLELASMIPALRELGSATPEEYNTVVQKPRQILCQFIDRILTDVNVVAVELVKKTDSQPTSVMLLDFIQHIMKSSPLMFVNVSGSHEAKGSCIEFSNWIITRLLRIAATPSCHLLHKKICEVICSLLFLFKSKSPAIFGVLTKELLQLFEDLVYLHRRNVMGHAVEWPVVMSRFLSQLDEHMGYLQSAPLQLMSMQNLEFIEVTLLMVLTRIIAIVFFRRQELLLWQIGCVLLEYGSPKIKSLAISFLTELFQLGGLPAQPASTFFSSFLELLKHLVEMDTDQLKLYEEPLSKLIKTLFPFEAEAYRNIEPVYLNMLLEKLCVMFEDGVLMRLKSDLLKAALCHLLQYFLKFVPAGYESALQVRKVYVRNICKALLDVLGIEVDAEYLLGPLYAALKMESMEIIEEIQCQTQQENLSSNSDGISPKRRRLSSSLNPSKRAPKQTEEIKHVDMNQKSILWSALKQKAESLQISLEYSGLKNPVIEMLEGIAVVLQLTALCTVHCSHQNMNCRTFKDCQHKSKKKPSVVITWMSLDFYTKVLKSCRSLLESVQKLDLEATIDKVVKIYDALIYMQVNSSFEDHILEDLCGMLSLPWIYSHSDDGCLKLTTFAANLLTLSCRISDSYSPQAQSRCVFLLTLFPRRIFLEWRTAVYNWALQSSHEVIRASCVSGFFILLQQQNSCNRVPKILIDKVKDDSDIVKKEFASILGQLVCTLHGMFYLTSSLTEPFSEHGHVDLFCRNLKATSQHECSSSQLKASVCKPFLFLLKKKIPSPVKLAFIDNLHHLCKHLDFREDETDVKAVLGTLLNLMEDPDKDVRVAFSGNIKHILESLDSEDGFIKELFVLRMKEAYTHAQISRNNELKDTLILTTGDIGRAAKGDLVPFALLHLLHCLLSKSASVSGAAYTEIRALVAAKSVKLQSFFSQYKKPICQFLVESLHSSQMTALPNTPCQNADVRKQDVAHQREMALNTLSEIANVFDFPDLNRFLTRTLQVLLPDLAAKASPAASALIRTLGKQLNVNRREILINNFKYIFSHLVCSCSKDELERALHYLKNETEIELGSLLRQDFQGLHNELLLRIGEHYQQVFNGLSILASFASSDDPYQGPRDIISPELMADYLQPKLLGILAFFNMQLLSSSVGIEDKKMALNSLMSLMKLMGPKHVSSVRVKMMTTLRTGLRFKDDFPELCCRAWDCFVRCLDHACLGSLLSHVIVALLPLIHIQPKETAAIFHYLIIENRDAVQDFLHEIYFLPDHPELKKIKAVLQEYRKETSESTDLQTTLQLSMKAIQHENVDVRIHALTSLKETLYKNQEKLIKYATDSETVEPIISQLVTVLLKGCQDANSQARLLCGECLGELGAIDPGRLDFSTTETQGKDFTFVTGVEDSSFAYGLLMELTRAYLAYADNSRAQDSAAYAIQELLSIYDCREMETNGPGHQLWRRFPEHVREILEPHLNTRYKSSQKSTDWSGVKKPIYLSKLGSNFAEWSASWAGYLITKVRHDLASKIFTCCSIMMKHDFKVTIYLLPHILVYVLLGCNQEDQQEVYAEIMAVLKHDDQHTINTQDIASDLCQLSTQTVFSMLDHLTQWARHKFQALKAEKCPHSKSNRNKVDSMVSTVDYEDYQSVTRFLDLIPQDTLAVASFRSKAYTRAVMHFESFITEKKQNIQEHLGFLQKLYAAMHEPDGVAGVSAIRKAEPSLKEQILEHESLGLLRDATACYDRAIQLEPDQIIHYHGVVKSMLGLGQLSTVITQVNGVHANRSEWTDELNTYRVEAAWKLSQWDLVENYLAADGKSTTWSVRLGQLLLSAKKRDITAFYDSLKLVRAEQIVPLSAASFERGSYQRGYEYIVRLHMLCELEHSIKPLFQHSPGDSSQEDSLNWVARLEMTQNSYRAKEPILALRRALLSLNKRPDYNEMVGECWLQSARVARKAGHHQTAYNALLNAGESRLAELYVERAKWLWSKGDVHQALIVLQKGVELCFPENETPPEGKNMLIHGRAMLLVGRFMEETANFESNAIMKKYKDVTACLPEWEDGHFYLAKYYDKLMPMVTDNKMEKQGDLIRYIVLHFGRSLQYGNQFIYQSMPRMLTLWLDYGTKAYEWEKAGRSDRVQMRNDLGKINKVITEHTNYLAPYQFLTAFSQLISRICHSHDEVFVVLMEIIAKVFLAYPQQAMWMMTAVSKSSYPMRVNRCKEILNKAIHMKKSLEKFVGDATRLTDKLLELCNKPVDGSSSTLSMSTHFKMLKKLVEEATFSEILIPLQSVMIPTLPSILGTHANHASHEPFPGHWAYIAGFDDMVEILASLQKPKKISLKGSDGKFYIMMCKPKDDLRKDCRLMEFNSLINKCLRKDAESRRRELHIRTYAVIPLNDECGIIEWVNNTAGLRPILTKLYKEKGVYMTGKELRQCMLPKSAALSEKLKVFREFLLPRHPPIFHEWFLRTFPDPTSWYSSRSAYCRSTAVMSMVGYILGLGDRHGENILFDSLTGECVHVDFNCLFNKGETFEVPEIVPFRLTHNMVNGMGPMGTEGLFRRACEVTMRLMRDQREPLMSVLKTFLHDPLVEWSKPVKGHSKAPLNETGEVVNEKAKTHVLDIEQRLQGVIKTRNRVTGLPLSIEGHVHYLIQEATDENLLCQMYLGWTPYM

As a reminder, the Ki is a measure of affinity in units of concentration, obtained from inhibition or displacement. With `Nc1ncc(-c2ccc(N3CCOCC3)nc2)nc1C(=O)Nc1ccccc1` [Compound I-34, 3-amino-6-(6-morpholinopyridin-3-yl)-N-phenylpyrazine-2-carboxamide], the Ki is 0.01 to 0.1 µM. With `CC(C)NCc1ccc(-c2cc(-c3nc(-c4ccc(S(=O)(=O)C(C)C)cc4)cnc3N)on2)cc1` [IIA-8, 3-[3-[4-[(isopropylamino)methyl]phenyl]isoxazol-5-yl]-5-(4-isopropylsulfonylphenyl)pyrazin-2-amine] the figure was at most 0.01 µM; with `CC(C)S(=O)(=O)c1ccc(-c2cnc(N)c(-c3nnc(-c4ccc(C5CNC5)cc4)o3)n2)cc1` [IA-285, 3-[5-[4-(azetidin-3-yl)phenyl]-1,3,4-oxadiazol-2-yl]-5-(4-isopropylsulfonylphenyl)pyrazin-2-amine], at most 0.01 µM; with `Cc1ccc2nc(-c3nc(-c4ccc(C(=O)N5CCCN(C(=O)OC(C)(C)C)CC5)cc4)cnc3N)[nH]c2c1` [Compound I-147, tert-butyl 4-(4-(5-amino-6-(6-methyl-1H-benzo[d]imidazol-2-yl)pyrazin-2-yl)phenylcarbonyl)-1,4-diazepane-1-carboxylate], at most 0.01 µM.

As to `COc1ccccc1NC(=O)c1nc(-c2ccc3[nH]ncc3c2)cnc1N` [Compound I-36, 3-amino-6-(1H-indazol-5-yl)-N-(2-methoxyphenyl)pyrazine-2-carboxamide], the Ki is 0.01 to 0.1 µM. As for `Nc1ncc(-c2ccc(C(=O)N3CCCCC3)cc2)nc1C(=O)Nc1ccccc1` [Compound I-78, 3-amino-N-phenyl-6-(4-(piperidine-1-carbonyl)phenyl)pyrazine-2-carboxamide], the Ki fell in the range of 0.01 to 0.1 µM. Regarding `CN1CCC(NC(=O)c2ccc(-c3cnc(N)c(C(=O)Nc4ccccc4)n3)cc2)CC1` [Compound I-64, 3-amino-6-(4-(1-methylpiperidin-4-ylcarbamoyl)phenyl)-N-phenylpyrazine-2-carboxamide], the inhibitory constant (Ki) lay within 0.1 to 5 µM. Regarding `CC(C)S(=O)(=O)c1ccc(-c2cnc(N)c(-c3nnc(-c4cccc([C@H](C)N)c4)o3)n2)cc1` [IA-123, 3-[5-[3-[(1S)-1-aminoethyl]phenyl]-1,3,4-oxadiazol-2-yl]-5-(4-isopropylsulfonylphenyl)pyrazin-2-amine], the Ki was at most 0.01 µM.

Take `Nc1ncc(-c2ccc(C(=O)N3CCCNCC3)nc2)nc1-c1nnc(-c2ccccc2)o1` [IA-47]: the Ki is at most 0.01 µM. With `CN(C)CCCOc1ccc(-c2cnc(N)c(-c3nnc(-c4ccccc4)o3)n2)cn1` [IA-279, 5-[6-[3-(dimethylamino)propoxy]-3-pyridyl]-3-(5-phenyl-1,3,4-oxadiazol-2-yl)pyrazin-2-amine] the figure was 0.1 to 5 µM; with `Nc1ncc(-c2ccccc2)nc1-c1nc2ccccc2[nH]1` [Compound I-110, 3-(1H-benzo[d]imidazol-2-yl)-5-phenylpyrazin-2-amine], 0.1 to 5 µM; with `CC(C)Oc1ccccc1-c1nnc(-c2nc(-c3ccc(C(=O)N(C)C)cc3)cnc2N)o1` [IA-108, 4-[5-amino-6-[5-(2-isopropoxyphenyl)-1,3,4-oxadiazol-2-yl]pyrazin-2-yl]-N,N-dimethyl-benzamide], at most 0.01 µM. For `Cc1ncccc1NC(=O)c1nc(-c2ccc(S(C)(=O)=O)cc2)cnc1N` [VII-5] the value was 0.01 to 0.1 µM; for `Nc1ncc(-c2cccnc2)nc1-c1nnc(-c2ccccc2)[nH]1` [Compound I-138, 3-(5-phenyl-4H-1,2,4-triazol-3-yl)-5-(pyridin-3-yl)pyrazin-2-amine], 0.01 to 0.1 µM. For `CN(C)C(=O)c1ccc(-c2cnc(N)c(-c3nnc(-c4cccc(CO)c4)o3)n2)cc1` [IA-198, 4-[5-amino-6-[5-[3-(hydroxymethyl)phenyl]-1,3,4-oxadiazol-2-yl]pyrazin-2-yl]-N,N-dimethyl-benzamide] the value was 0.01 to 0.1 µM; for `Nc1ncc(-c2cccc(C(=O)N3CCC(N4CCCC4)CC3)c2)nc1C(=O)Nc1ccccc1` [Compound I-56, 3-amino-N-phenyl-6-(3-(4-(pyrrolidin-1-yl)piperidine-1-carbonyl)phenyl)pyrazine-2-carboxamide], 0.1 to 5 µM; for `CNCc1ccc(-c2nnc(-c3nc(-c4ccc(S(=O)(=O)C(C)C)cn4)cnc3N)o2)cc1` [IA-300, 5-(5-isopropylsulfonyl-2-pyridyl)-3-[5-[4-(methylaminomethyl)phenyl]-1,3,4-oxadiazol-2-yl]pyrazin-2-amine], at most 0.01 µM.

Take `CCn1cc(-c2cnc(N)c(-c3nnc(-c4ccccc4)o3)n2)cn1` [IA-210, 5-(1-ethylpyrazol-4-yl)-3-(5-phenyl-1,3,4-oxadiazol-2-yl)pyrazin-2-amine]: the inhibitory constant (Ki) lay in the range of 0.01 to 0.1 µM. With `Nc1ncc(-c2ccc(S(=O)(=O)N3CCC3)cc2)nc1-c1nnc(-c2ccccc2)o1` [IA-112, 5-[4-(azetidin-1-ylsulfonyl)phenyl]-3-(5-phenyl-1,3,4-oxadiazol-2-yl)pyrazin-2-amine] the figure was at most 0.01 µM. For `CN(C)C(=O)c1ccc(-c2cnc(N)c(-c3nnc(-c4cccc(CCO)c4)o3)n2)cc1` [IA-69, 4-[5-amino-6-[5-[3-(2-hydroxyethyl)phenyl]-1,3,4-oxadiazol-2-yl]pyrazin-2-yl]-N,N-dimethyl-benzamide] the value was 0.01 to 0.1 µM; for `CN(C)C(=O)c1ccc(-c2cnc(N)c(-c3nnc(-c4cccc([N+](=O)[O-])c4)o3)n2)cc1` [IA-286, 4-(5-amino-6-(5-(3-nitrophenyl)-1,3,4-oxadiazol-2-yl)pyrazin-2-yl)-N,N-dimethylbenzamide], 0.1 to 5 µM. For `CC(C)S(=O)(=O)c1ccc(-c2cnc(N)c(-c3nnc(CCN)o3)n2)cc1` [IA-214, 3-[5-(2-aminoethyl)-1,3,4-oxadiazol-2-yl]-5-(4-isopropylsulfonylphenyl)pyrazin-2-amine] the value was 0.01 to 0.1 µM; for `Nc1ncc(-c2ccc(NCCN3CCOCC3)nc2)nc1-c1nnc(-c2ccccc2)o1` [IA-72, 5-[6-(2-morpholinoethylamino)-3-pyridyl]-3-(5-phenyl-1,3,4-oxadiazol-2-yl)pyrazin-2-amine], 0.1 to 5 µM; for `Nc1ncc(-c2ccc(C(=O)N3CCNCC3)c(F)c2)nc1-c1nnc(-c2ccccc2)o1` [IA-7], 0.01 to 0.1 µM.

In the case of `CS(=O)(=O)c1ccc(-c2cnc(N)c(-c3noc(-c4ccccc4)n3)n2)cc1` [Compound I-144, 5-(4-(methylsulfonyl)phenyl)-3-(5-phenyl-1,2,4-oxadiazol-3-yl)pyrazin-2-amine], the Ki is at most 0.01 µM. With `CN(C)CCNc1cc(-c2cnc(N)c(-c3nnc(-c4ccccc4)o3)n2)ccn1` [IA-265, N′-[4-[5-amino-6-(5-phenyl-1,3,4-oxadiazol-2-yl)pyrazin-2-yl]-2-pyridyl]-N,N-dimethyl-ethane-1,2-diamine] the figure was 0.1 to 5 µM; with `CNCc1ccc(-c2nnc(-c3nc(-c4ccc(S(=O)(=O)C(C)C)c(Cl)c4)cnc3N)o2)cc1` [IA-305, 5-(3-chloro-4-isopropylsulfonyl-phenyl)-3-[5-[4-(methylaminomethyl)phenyl]-1,3,4-oxadiazol-2-yl]pyrazin-2-amine], at most 0.01 µM; with `N#Cc1cnccc1-c1cnc(N)c(C(=O)Nc2ccccc2)n1` [Compound I-2, 3-amino-6-(3-cyanopyridin-4-yl)-N-phenylpyrazine-2-carboxamide], at most 0.01 µM. For `N#Cc1ccccc1-c1cnc(N)c(-c2nnc(-c3ccccc3)o2)n1` [IA-50] the value was 0.01 to 0.1 µM; for `CCS(=O)(=O)c1ccc(-c2cnc(N)c(-c3nnc(-c4ccccc4)o3)n2)cc1` [IA-149, 5-(4-ethylsulfonylphenyl)-3-(5-phenyl-1,3,4-oxadiazol-2-yl)pyrazin-2-amine], at most 0.01 µM. On to `CC(C)S(=O)(=O)c1ccc(-c2cnc(N)c(-c3nnc(-c4ccc(CN[C@H](C)CO)cc4F)o3)n2)cc1` [IA-333, (R)-2-(4-(5-(3-amino-6-(4-(isopropylsulfonyl)phenyl)pyrazin-2-yl)-1,3,4-oxadiazol-2-yl)-3-fluorobenzylamino)propan-1-ol], for which the Ki was at most 0.01 µM. With `Nc1ncc(-c2ccc(C(=O)NCCO)cc2)nc1-c1nc2ccccc2[nH]1` [Compound I-132, 4-(5-amino-6-(1H-benzo[d]imidazol-2-yl)pyrazin-2-yl)-N-(2-hydroxyethyl)benzamide] the figure was 0.01 to 0.1 µM; with `NCc1ccc(-c2nnc(-c3nc(-c4cccnc4)cnc3N)[nH]2)cc1` [Compound I-139, 3-(5-(4-(aminomethyl)phenyl)-4H-1,2,4-triazol-3-yl)-5-(pyridin-3-yl)pyrazin-2-amine], 0.01 to 0.1 µM.

Take `CC(=O)c1ccc(-c2cnc(N)c(-c3nnc(-c4ccccc4)o3)n2)cc1` [IA-110, 1-[4-[5-amino-6-(5-phenyl-1,3,4-oxadiazol-2-yl)pyrazin-2-yl]phenyl]ethanone]: the Ki is 0.01 to 0.1 µM. In the case of `C=Cc1ccccc1-c1cnc(N)c(-c2nnc(-c3ccccc3)o2)n1` [IA-253, 3-(5-phenyl-1,3,4-oxadiazol-2-yl)-5-(2-vinylphenyl)pyrazin-2-amine], the Ki is 0.1 to 5 µM.

In the case of `N#Cc1cc(C(=O)N2CCCNCC2)ccc1-c1cnc(N)c(-c2nnc(-c3ccccc3)o2)n1` [IA-20], the Ki was at most 0.01 µM.

Take `CN(C)C(=O)c1ccc(-c2cnc(N)c(-c3nnc(-c4ccc(CO)cc4)o3)n2)cc1` [IA-76, 4-[5-amino-6-[5-[4-(hydroxymethyl)phenyl]-1,3,4-oxadiazol-2-yl]pyrazin-2-yl]-N,N-dimethyl-benzamide]: the Ki was at most 0.01 µM.
